This note sets out measurements from patent US9902728B2, “Pyrrolo and pyrazolopyrimidines as ubiquitin-specific protease 7 inhibitors” (Forma Therapeutics, Inc., priority 2014, dated 2018).

The structures appear in SMILES notation. Bounds are passed on as bounds.

For the first assay, the target named is T1, USP7 (Homo sapiens, UniProt Q93009).
T1 construct: USP7, construct USP7 (208-1102) 6*His, Viva Biotech; 6xHis (C); purchased Viva Biotech
T1 sequence (Q93009 208-1102): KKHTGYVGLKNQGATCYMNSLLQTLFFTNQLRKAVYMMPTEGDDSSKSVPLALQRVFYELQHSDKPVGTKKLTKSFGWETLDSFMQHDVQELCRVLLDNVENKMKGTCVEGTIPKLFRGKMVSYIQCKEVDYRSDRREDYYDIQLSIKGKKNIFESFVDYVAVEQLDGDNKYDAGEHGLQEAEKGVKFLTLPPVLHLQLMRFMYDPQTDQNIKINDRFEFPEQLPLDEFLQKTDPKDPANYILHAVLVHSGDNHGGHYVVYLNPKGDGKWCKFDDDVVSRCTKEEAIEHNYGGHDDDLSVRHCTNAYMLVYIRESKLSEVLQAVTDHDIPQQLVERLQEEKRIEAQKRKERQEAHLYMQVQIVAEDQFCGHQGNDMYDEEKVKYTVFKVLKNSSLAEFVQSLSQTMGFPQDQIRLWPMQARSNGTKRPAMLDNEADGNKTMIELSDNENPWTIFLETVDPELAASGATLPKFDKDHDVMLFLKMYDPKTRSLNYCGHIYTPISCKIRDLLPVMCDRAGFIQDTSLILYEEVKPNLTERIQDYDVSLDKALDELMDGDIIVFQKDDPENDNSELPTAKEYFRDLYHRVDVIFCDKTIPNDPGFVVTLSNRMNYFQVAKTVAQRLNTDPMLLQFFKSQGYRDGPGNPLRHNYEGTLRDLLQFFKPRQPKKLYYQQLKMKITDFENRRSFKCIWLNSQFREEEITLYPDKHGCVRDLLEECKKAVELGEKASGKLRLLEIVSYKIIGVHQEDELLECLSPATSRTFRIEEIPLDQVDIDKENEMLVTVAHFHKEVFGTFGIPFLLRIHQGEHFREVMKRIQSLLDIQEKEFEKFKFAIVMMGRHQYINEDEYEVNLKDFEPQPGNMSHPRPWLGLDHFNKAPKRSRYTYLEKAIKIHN
The assay can be described thus: USP7 Assay A (Ubitquin-Rhodamine 110 Assay). It is filed as biochemical. As to conditions: USP7 activity in USP7 assay A and B (table does not say which assay per compound); read-out: USP7_IC50. The method, boiled down: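 Enzyme and compound sat together for 30 min before Ub-Rh110 was added, in buffer of 20 mM Tris-HCl (pH 8.0), 1 mM GSH, 0.03% BGG and 0.01% Triton X-100.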
For the compound `O=C(c1cnc(C2CC2)o1)N1CCC(O)(Cn2cnc3c(cnn3-c3ccc(-n4cc(C(F)(F)F)cn4)cc3)c2=O)CC1` [Compound I-1685], the IC50 is below 200 nM.
As for `O=C(C[C@H](n1cccn1)C(F)(F)F)N1CCC(O)(Cn2cnc3c(cnn3-c3ccc(F)cc3)c2=O)CC1` [Compound I-912], the IC50 fell in the range of 1000 to 10000 nM.
With `O=C(c1cnc(C2CC2)o1)N1CCC(O)(Cn2cnc3c(cnn3-c3ccc(N4CCC(F)(F)CC4)cc3)c2=O)CC1` [Compound I-699], the IC50 was in the range of 200 to 1000 nM.
For `CC(C)(O)Cn1cc(-c2ccc(-n3ncc4c(=O)n(CC5(O)CCN(C(=O)c6ccc(F)cc6)CC5)cnc43)cc2)cn1` [Compound I-1617], the IC50 lay within 200 to 1000 nM.
Take `CC1(C(=O)N2CCC(O)(Cn3cnc4c(cnn4-c4ccc(-n5cccn5)cc4)c3=O)CC2)CC1` [Compound I-781]: the IC50 fell in the range of 200 to 1000 nM.
Take `O=C(C[C@H](C(F)F)n1ccc(F)n1)N1CCC(O)(Cn2cnc3c(cnn3-c3ccc(C(F)(F)F)cc3)c2=O)CC1` [Compound I-1036]: the IC50 is below 200 nM.
As to `CN1CC[C@@H](Oc2ccc(-c3ccc(-n4ncc5c(=O)n(CC6(O)CCN(C(=O)C7CC7)CC6)cnc54)cc3)cc2)C1` [Compound I-679], the IC50 is below 200 nM.
`O=C(C1CC(Nc2cccnc2)C1)N1CCC(O)(Cn2cnc3c(cnn3-c3ccc(F)cc3)c2=O)CC1` (stereo not drawn) [Compound I-1030]: the IC50 was 200 to 1000 nM.
As for `CN[C@@H]1CCN(c2ccc(-c3ccc(-n4ncc5c(=O)n(CC6(O)CCN(C(=O)C7CC7)CC6)cnc54)cc3)cc2)C1` [Compound I-690], the IC50 lay within 200 to 1000 nM.
The same measure, in the same setting: next, `O=C(C[C@@H](C(F)F)n1cccn1)N1CCC(O)(Cn2cnc3c(cnn3-c3ccc(N4CCCCC4)cc3)c2=O)CC1` [Compound I-822]: 200 to 1000 nM.
Take `O=C(C[C@@H](C(F)F)n1ccc(F)n1)N1CCC(O)(Cn2cnc3c(cnn3-c3cccc(N4CC5CC5C4)c3)c2=O)CC1` (stereo partly drawn) [Compound I-790]: the IC50 is below 200 nM.
Still for that read-out and setting: the figure for `Nc1cc(Cl)ccc1C(=O)N1CCC(O)(Cn2cnc3c(cnn3-c3ccc(F)cc3)c2=O)CC1` [Compound I-554] is 1000 to 10000 nM; for `O=C(c1ccc(F)cc1)N1CCC(O)(Cn2cnc3c(cnn3-c3ccc(-n4cc(CO)cn4)cc3)c2=O)CC1` [Compound I-1734] it is 200 to 1000 nM.
Turning to `CC1(C(=O)N2CCC(O)(Cn3cnc4c(cnn4-c4cccc(N5CCC(F)CC5)c4)c3=O)CC2)CC1` [Compound I-1561], the IC50 is below 200 nM.
Consider `CC1(C(=O)N2CCC(O)(Cn3cnc4c(cnn4-c4ccc(N5CCN(C6COC6)CC5)cc4)c3=O)CC2)CC1` [Compound I-1701], for which the IC50 lay within 200 to 1000 nM.
In the case of `O=C(c1ccc(-n2cncn2)cc1)N1CCC(O)(Cn2cnc3c(cnn3-c3ccc(Cl)cc3)c2=O)CC1` [Compound I-1090], the IC50 lay within 200 to 1000 nM.
As for `O=C(c1ccc(F)cc1)N1CCC(O)(Cn2cnc3c(cnn3-c3ccc(-c4cnn(C5CCOCC5)c4)cc3)c2=O)CC1` [Compound I-1614], the IC50 lay in the range of 200 to 1000 nM.
The same measure, in the same setting: the figure for `CC1(C(=O)N2CCC(O)(Cn3cnc4c(cnn4-c4ccc(N5CC(C6CCOCC6)C5)cc4)c3=O)CC2)CC1` [Compound I-1570] is 200 to 1000 nM; for `CC1(C(=O)N2CCC(O)(Cn3cnc4c(cnn4-c4ccc(N5CC(F)C5)cc4)c3=O)CC2)CC1` [Compound I-1679] it is 200 to 1000 nM.
As to `O=C(N1CCC(O)(Cn2cnc3c(cnn3-c3ccc(F)cc3)c2=O)CC1)N1CCc2cn[nH]c2C1` [Compound I-761], the IC50 was below 200 nM.
As for `Cc1ccn(-c2ccc(-n3ncc4c(=O)n(CC5(O)CCN(C(=O)C6(C)CC6)CC5)cnc43)cc2)n1` [Compound I-1710], the IC50 was in the range of 200 to 1000 nM.
Still for that read-out and setting: next, `C[C@@H](CC(=O)N1CCC(O)(Cn2cnc3c(cnn3-c3ccc(N4CC[C@@](C)(O)C4)cc3)c2=O)CC1)n1cccn1` [Compound I-838]: 1000 to 10000 nM; `C=CC(=O)N1CCC1C(=O)N1CCC(O)(Cn2cnc3c(cnn3-c3ccc(N4CCN(C)CC4)cc3)c2=O)CC1` (stereo not drawn) [Compound I-832]: below 200 nM; `CN1CC(Oc2ccc(-n3ncc4c(=O)n(CC5(O)CCN(C(=O)c6ccc(F)cc6)CC5)cnc43)cc2)C1` [Compound I-692]: below 200 nM.
For the compound `O=C(C1CC1)N1CCC(O)(Cn2cnc3c(cnn3-c3ccc(-n4cc(N5CCOCC5)cn4)cc3)c2=O)CC1` [Compound I-819], the IC50 fell in the range of 200 to 1000 nM.
In the case of `Cn1ccc(OC2CCC(C(=O)N3CCC(O)(Cn4cnc5c(ccn5-c5ccc(F)cc5)c4=O)CC3)CC2)n1` (stereo not drawn) [Compound I-1067], the IC50 lay in the range of 200 to 1000 nM.
With `O=C(c1ccc(F)cc1)N1CCC(O)(Cn2cnc3c(cnn3-c3ccc(OCC4(F)CCOCC4)cc3)c2=O)CC1` [Compound I-693], the IC50 lay in the range of 200 to 1000 nM.
Consider `O=C(C1CCC(Oc2ccccn2)CC1)N1CCC(O)(Cn2cnc3c(ccn3-c3ccc(F)cc3)c2=O)CC1` (stereo not drawn) [Compound I-1038], for which the IC50 is below 200 nM.
`Cc1snc(Cc2ccccc2)c1C(=O)N1CCC(O)(Cn2cnc3c(cnn3-c3ccc(F)cc3)c2=O)CC1` [Compound I-1110]: the IC50 was below 200 nM.
`O=C(c1ccn(C2CC2)n1)N1CCC(O)(Cn2cnc3c(cnn3-c3ccc(Cl)cc3)c2=O)CC1` [Compound I-1093]: the IC50 was 1000 to 10000 nM.

The assay is the same for the next values; noted with them: USP7 assay A and B (table does not say which assay per compound); read-out: USP7_IC50.
With `O=C(c1ccc(F)c(Cl)c1)N1CCC(O)(Cn2cnc3c(cnn3-c3ccccc3)c2=O)CC1` [Compound I-210], the IC50 lay within 1000 to 10000 nM.
Turning to `O=C(C1CC1)N1CCC(O)(Cn2cnc3c(cnn3-c3ccc(CN4CCc5ccccc5C4)cc3)c2=O)CC1` [Compound I-437], the IC50 is 1000 to 10000 nM.
For the compound `O=C(c1ccccc1)N1CCC(O)(Cn2cnc3c(cnn3-c3ccccc3O)c2=O)CC1` [Compound I-18, 5-((1-Benzoyl-4-hydroxypiperidin-4-yl)methyl)-1-(2-hydroxyphenyl)-1,5-dihydro-4H-pyrazolo[3,4-d]pyrimidin-4-one], the IC50 is above 10000 nM.
`O=C(Nc1ccc(-n2ncc3c(=O)n(CC4(O)CCN(C(=O)C5CC5)CC4)cnc32)cc1)c1ccccn1` [Compound I-1383]: the IC50 was 1000 to 10000 nM.
As to `COc1ccc(C(=O)N2CCC(O)(C(C)n3cnc4c(cnn4-c4ccc(F)cc4)c3=O)CC2)cc1` (single isomer, unassigned) [Compound I-615], the IC50 fell in the range of 200 to 1000 nM.
As to `O=C(C1CC1)N1CCC(O)(Cn2cnc3c(cnn3-c3ccc(CN4CCC5(CCOCC5)C4)cc3)c2=O)CC1` [Compound I-443], the IC50 is 1000 to 10000 nM.
As to `O=C(C1CC1)N1CCC(O)(Cn2cnc3c(cnn3-c3ccc(N4CCN5CCCCC5C4)cc3)c2=O)CC1` (stereo not drawn) [Compound I-1584], the IC50 was 200 to 1000 nM.
For `O=C(c1ccc(F)cc1)N1CCC(O)(Cn2cnc3c(cnn3-c3cccc(C4CCNCC4)c3)c2=O)CC1` [Compound I-993], the IC50 fell in the range of 1000 to 10000 nM.
Regarding `O=C(C1CC1)N1CCC(O)(Cn2cnc3c(cnn3-c3ccc(-c4ccc(O[C@@H]5CCNC5)cc4)cc3)c2=O)CC1` [Compound I-842], the IC50 lay within 200 to 1000 nM.
In the case of `O=C(C1CC1)N1CCC(O)(Cn2cnc3c(cnn3-c3ccc(Cl)cc3Cl)c2=O)CC1` [Compound I-264], the IC50 was above 10000 nM.
For `O=C(c1ccc(-n2nccn2)cc1)N1CCC(O)(Cn2cnc3c(cnn3-c3ccc(Cl)cc3)c2=O)CC1` [Compound I-1129], the IC50 lay in the range of 1000 to 10000 nM.
On to `O=C(c1ccc(N2CCOCC2)nc1)N1CCC(O)(Cn2cnc3c(cnn3-c3ccc(F)cc3)c2=O)CC1` [Compound I-419], for which the IC50 lay in the range of 1000 to 10000 nM.
For the compound `COc1ccc(C(=O)N2CCC(O)(C(C)n3cnc4c(cnn4-c4ccc(OC)cc4)c3=O)CC2)cc1` (stereo not drawn) [Compound I-625], the IC50 lay in the range of 1000 to 10000 nM.
For the compound `C=CS(=O)(=O)Nc1ccc(C(=O)N2CCC(O)(Cn3cnc4c(cnn4-c4ccccc4)c3=O)CC2)cc1` [Compound I-173], the IC50 is 200 to 1000 nM.
As to `CN1CCN(c2ccc(C(=O)N3CCC(O)(Cn4cnc5c(cnn5-c5ccc(F)cc5)c4=O)CC3)cc2)CC1` [Compound I-606], the IC50 fell in the range of 1000 to 10000 nM.
Take `O=C(C1CC1)N1CCC(O)(Cn2cnc3c(cnn3-c3ccc(-c4cc(F)ccc4CO)cc3)c2=O)CC1` [Compound I-390]: the IC50 lay in the range of 1000 to 10000 nM.
Take `CN(C)C(=O)N1CCC(O)(Cn2cnc3c(cnn3-c3ccc(F)c(-c4ccc(F)cc4)c3)c2=O)CC1` [Compound I-475]: the IC50 fell in the range of 1000 to 10000 nM.
`O=C(N1CCC(O)(Cn2cnc3c(cnn3-c3ccccc3)c2=O)CC1)C12CC(C1)C2` [Compound I-289]: the IC50 lay within 200 to 1000 nM.
Same read-out and setting: the figure for `N#Cc1cccc(-c2cccc(-n3ncc4c(=O)n(CC5(O)CCN(C(=O)C6CC6)CC5)cnc43)c2)c1` [Compound I-359] is 1000 to 10000 nM; for `CN(C)C(=O)N1CCC(O)(Cn2cnc3c(cnn3-c3ccc(OCC4CCC4)cc3)c2=O)CC1` [Compound I-1295] it is 1000 to 10000 nM; for `C[S+]([O-])c1ccc(-n2ncc3c(=O)n(CC4(O)CCN(C(=O)c5ccc(F)cc5)CC4)cnc32)cc1` (single isomer, unassigned) [Compound I-996, 5-((1-(4-fluorobenzoyl)-4-hydroxypiperidin-4-yl)methyl)-1-(4-(methylsulfinyl)phenyl)-1H-pyrazolo[3,4-d]pyrimidin-4(5H)-one] it is 1000 to 10000 nM.
Regarding `Cc1ccc(-n2ncc3c(=O)n(CC4(O)CCN(C(=O)c5ccc(OC6CCOCC6)cc5)CC4)cnc32)cc1` [Compound I-1144], the IC50 lay within 1000 to 10000 nM.
Still for that read-out and setting: next, `O=C(c1ccc(Oc2ccccc2)cc1)N1CCC(O)(Cn2cnc3c(cnn3-c3ccccc3)c2=O)CC1` [Compound I-73]: 200 to 1000 nM.
Turning to `O=C(c1ccc(Cl)c(Cl)c1)N1CCC(O)(Cn2cnc3c(cnn3-c3ccccc3)c2=O)CC1` [Compound I-213], the IC50 lay within 1000 to 10000 nM.
Turning to `O=C(C1CC1)N1CCC(O)(Cn2cnc3c(cnn3-c3ccc(N4CCCc5ccccc54)cc3)c2=O)CC1` [Compound I-1082], the IC50 lay in the range of 1000 to 10000 nM.
Same read-out and setting: next, `O=C(c1ccccc1)N1CC[C@](O)(Cn2cnc3c(cnn3-c3ccccc3)c2=O)[C@H](F)C1` [Compound I-469]: 1000 to 10000 nM.
Take `O=C(Nc1ccc(-n2ncc3c(=O)n(CC4(O)CCN(C(=O)C5CC5)CC4)cnc32)cc1)c1ccccc1F` [Compound I-1380]: the IC50 fell in the range of 1000 to 10000 nM.
